The compounds below were run against T1, hSTING (Homo sapiens, UniProt Q86WV6, G230A/H232R/R293Q/R71H) (assay: STING reporter assay (luciferase reporter) in THP1-Dual KO-IFNAR2 cells activated with 2′3′cGAMP). Conditions: 15 μM 2′3′cGAMP, 24 h, luciferase reporter activity.
T1 construct: host or cells: THP1-Dual KO-IFNAR2 cells
Type: cell-based
Experimental: STING pathway activation by the compounds described herein is measured using THP1-Dual™ cells (KO-IFNAR2).
THP1-Dual™ KO-IFNAR2 Cells (obtained from invivogen) are maintained in RPMI, 10% FCS, 5 ml P/S, 2 mM L-glut, 10 mM Hepes, and 1 mM sodium pyruvate. Compounds are spotted in empty 384 well tissue culture plates (Greiner 781182) by Echo for a final concentration of […]. Cells are plated into the TC plates at 40 μL per well, 2×10E6 cells/mL. For activation with STING ligand, 2′3′cGAMP (MW 718.38, obtained from Invivogen), is prepared in Optimem media.
The following solutions are prepared for each 1×384 plate: • Solution A: 2 mL Optimem with one of the following stimuli: • 60 uL of 10 mM 2′3′cGAMP→150 μM stock • Solution B: 2 mL Optimem with 60 μL Lipofectamine 2000→Incubate 5 min at RT
2 mL of solution A and 2 ml Solution B is mixed and incubated for 20 min at room temperature (RT). 20 uL of transfection solution (A+B) is added on top of the plated cells, with a final 2′3′cGAMP concentration of 15 μM. The plates are then centrifuged immediately at 340 g for 1 minute, after which they are incubated at 37° C., 5% CO2, >98% humidity for 24 h. Luciferase reporter activity is then measured. EC50 values were calculated by using standard methods known in the art.
Luciferase Reporter Assay:
10 μL of supernatant from the assay is transferred to white 384-plate with flat bottom and squared wells. one pouch of QUANTI-Luc™ Plus is dissolved in 25 mL of water. 100 μL of QLC Stabilizer per 25 mL of QUANTI-Luc™ Plus solution was added. 50 μL of QUANTI-Luc™ Plus/QLC solution per well is then added. Luminescence is measured on a Platereader (e.g., Spectramax I3X (Molecular Devices GF3637001)).
Luciferase reporter activity is then measured. EC50 values are calculated by using standard methods known in the art.

T1 sequence (Q86WV6 whole entry R71H/G230A/H232R/R293Q): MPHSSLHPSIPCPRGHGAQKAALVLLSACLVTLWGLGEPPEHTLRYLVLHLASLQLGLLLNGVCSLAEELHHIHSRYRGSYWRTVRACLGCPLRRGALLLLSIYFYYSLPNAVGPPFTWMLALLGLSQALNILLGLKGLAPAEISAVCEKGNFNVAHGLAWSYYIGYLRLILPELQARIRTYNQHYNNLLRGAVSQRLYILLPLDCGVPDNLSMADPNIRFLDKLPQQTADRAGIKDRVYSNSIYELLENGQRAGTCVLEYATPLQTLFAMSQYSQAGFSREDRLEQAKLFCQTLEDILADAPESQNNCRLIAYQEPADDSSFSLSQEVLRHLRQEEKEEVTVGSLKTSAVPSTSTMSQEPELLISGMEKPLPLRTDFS

SMILES	EC50 [µM]
O=C(Nc1ccc(C(F)(F)F)cc1)Nc1c[nH]c2cnc(-c3ccccc3)nc12 [Compound 180]	5 to 100
CCc1ccc(NC(=O)Nc2c[nH]c3ncncc23)cc1 [Compound 183b]	5 to 100
CC(C)(O)c1cccc(-c2ccnc3[nH]cc(NC(=O)Nc4ccc(C(F)(F)F)cc4)c23)c1 [Compound 205]	5 to 100
O=C(Nc1ccc(C(F)(F)F)nc1)Nc1c[nH]c2ncccc12 [Compound 257]	5 to 100
O=C(Nc1ccc(C(F)(F)F)cn1)Nc1c[nH]c2cccnc12 [Compound 152]	5 to 100
CCCCC1CCCN(C(=O)Nc2c[nH]c3ncccc23)C1 (centres unmarked) [Compound 167]	5 to 100
O=C(Nc1ccc(C(F)(F)F)cc1)Nc1c[nH]c2nccc(-c3ccncc3)c12 [Compound 206]	5 to 100
CS(=O)(=O)c1ccc(-c2cnc3[nH]cc(NC(=O)Nc4ccc(C(F)(F)F)cc4)c3c2)cc1 [Compound 207]	5 to 100
O=C(Nc1ccc(C(F)(F)F)nc1)Nc1c[nH]c2ccncc12 [Compound 318]	5 to 100
CCCCC1CCN(C(=O)Nc2c[nH]c3ncc(F)cc23)CC1 [Compound 294]	5 to 100
O=C(Nc1c[nH]c2ncccc12)N1CCc2ccccc2C1 [Compound 306]	5 to 100
CCc1cnc(NC(=O)Nc2c[nH]c3ncccc23)s1 [Compound 168]	5 to 100
COc1ccc(F)c(F)c1-c1cnc2[nH]cc(NC(=O)Nc3ccc(C(F)(F)F)cc3)c2c1 [Compound 214]	5 to 100
O=C(Nc1c[nH]c2ccncc12)NC1CC2CCC(C2)C1 (centres unmarked) [Compound 161]	5 to 100
Nc1cnc2[nH]cc(NC(=O)N3CC(c4ccccc4)C3)c2c1 [Compound 249]	5 to 100
O=C(Nc1ccc(C(F)(F)F)cc1)Nc1c[nH]c2ccc(-c3ccccc3)nc12 [Compound 328, 1-(5-phenyl-1H-pyrrolo[3,2-b]pyridin-3-yl)-3-(4-(trifluoromethyl)phenyl)urea]	5 to 100
O=C(Nc1ccc(C(F)(F)F)cc1)Nc1c[nH]c2nccc(C3=CCOCC3)c12 [Compound 203]	5 to 100

SMILES	EC50 [µM]
O=C(Nc1ccc(C(F)(F)F)cc1)Nc1c[nH]c2c(Cl)ncnc12 [Compound 183]	5 to 100
O=C(Nc1c[nH]c2cccnc12)NC1CCC(c2ccccc2)CC1 (centres unmarked) [Compound 325]	5 to 100
CN1CC=C(c2cnc3[nH]cc(NC(=O)Nc4ccc(C(F)(F)F)cc4)c3c2)CC1 [Compound 213]	5 to 100
O=C(Nc1c[nH]c2ncccc12)NC1CC2CCC(C2)C1 (centres unmarked) [Compound 160]	5 to 100
O=C(Nc1ccc(C(F)(F)F)cc1)Nc1c[nH]c2nccc(-c3cccnc3)c12 [Compound 189]	5 to 100
O=C(Nc1ccc(C(F)(F)F)cc1)Nc1c[nH]c2ncc(-c3ccc(N4CCOCC4)nc3)cc12 [Compound 188]	5 to 100
O=C(Nc1c[nH]c2ncccc12)N1CC(c2ccccc2)C1 [Compound 289]	5 to 100
O=C(Nc1c[nH]c2cnccc12)NC1CCC(c2ccccc2)CC1 (centres unmarked) [Compound 137]	1 to 5
O=C(Nc1c[nH]c2ncccc12)NC1CC(c2ccccc2)C1 (centres unmarked) [Compound 133]	5 to 100
CN(C(=O)Nc1c[nH]c2ncc(F)cc12)c1ccc(C(F)(F)F)cc1 [Compound 172]	5 to 100
O=C(Nc1c[nH]c2ncc(F)cc12)NC1CCN(CC(F)(F)F)CC1 [Compound 252]	5 to 100
CN(C(=O)Nc1c[nH]c2cccnc12)c1ccc(C(F)(F)F)cc1 [Compound 154]	5 to 100
O=C(Nc1ccc(C(F)(F)F)cc1)Nc1c[nH]c2cnccc12 [Compound 144]	1 to 5
O=C(Nc1c[nH]c2ncc(F)cc12)NC1CCC2(CCC2)CC1 [Compound 247]	1 to 5
CC(c1ccc(-c2cnc3[nH]cc(NC(=O)Nc4ccc(C(F)(F)F)cc4)c3c2)cc1)N(C)C (centres unmarked) [Compound 196]	5 to 100
O=C(Nc1c[nH]c2ncccc12)NC1CCCc2ccccc21 (centres unmarked) [Compound 135]	5 to 100
CN1CC=C(c2ccnc3[nH]cc(NC(=O)Nc4ccc(C(F)(F)F)cc4)c23)CC1 [Compound 195]	5 to 100

The remaining lines, values ahead:

EC50 [µM]	SMILES
0.2 to 1	O=C(Nc1ccc(C(F)(F)F)cc1)Nc1c[nH]c2ncc(-c3ccc(OCC4CC4)nc3)cc12 [Compound 211]
0.04 to 0.2	O=C(Nc1ccc(C(F)(F)F)cc1)Nc1c[nH]c2ncc(F)cc12 [Compound 173, 1-(5-fluoro-1H-pyrrolo[2,3-b]pyridin-3-yl)-3-(4-(trifluoromethyl)phenyl)urea]
0.2 to 1	Cc1ccc2[nH]cc(NC(=O)Nc3ccc(C(F)(F)F)cc3)c2n1 [Compound 329]
1 to 5	O=C(Nc1cccc(C2CCCCC2)n1)Nc1c[nH]c2ncc(F)cc12 [Compound 260]
1 to 5	Cn1cc(-c2cnc3[nH]cc(NC(=O)Nc4ccc(C(F)(F)F)cc4)c3c2)c(C(F)(F)F)n1 [Compound 198]
1 to 5	CN1CCN(c2ccc(-c3cnc4[nH]cc(NC(=O)Nc5ccc(C(F)(F)F)cc5)c4c3)cc2)CC1 [Compound 197]
0.2 to 1	CCCCC1CCC(N/C(=N\C#N)Nc2c[nH]c3cccnc23)CC1 (centres unmarked) [Compound 336]
1 to 5	O=C(Nc1cccc(C(F)(F)F)c1)Nc1c[nH]c2ncccc12 [Compound 150]
0.2 to 1	O=C(Nc1ccc(C2CCCCC2)nc1)Nc1c[nH]c2ncccc12 [Compound 263]
0.2 to 1	N#Cc1cnc2[nH]cc(NC(=O)Nc3ccc(C(F)(F)F)cc3)c2c1 [Compound 151]
1 to 5	CC(C)(O)c1cccc(-c2cnc3[nH]cc(NC(=O)Nc4ccc(C(F)(F)F)cc4)c3c2)c1 [Compound 215]
0.04 to 0.2	O=C(Nc1ccc(C2CCCCC2)cn1)Nc1c[nH]c2ncc(F)cc12 [Compound 261]
0.2 to 1	O=C(Nc1ccc(C(F)(F)F)cn1)Nc1c[nH]c2ncccc12 [Compound 265]
0.2 to 1	O=C(Nc1cnc(-c2ccccc2)s1)Nc1c[nH]c2ncc(F)cc12 [Compound 295]
1 to 5	CCCCC1CCN(C(=O)Nc2c[nH]c3cccnc23)CC1 [Compound 140]
1 to 5	O=C(Nc1ccc(C(F)(F)F)cn1)Nc1c[nH]c2ccncc12 [Compound 319]
1 to 5	O=C(Nc1c[nH]c2cccnc12)NC1CCC2(CCC2)CC1 [Compound 142]
0.2 to 1	CCCCc1ccc(NC(=O)Nc2c[nH]c3ncc(F)cc23)nc1 [Compound 259]
1 to 5	O=C(Nc1ccc(C(F)(F)F)cc1)Nc1c[nH]c2ncc(C3=CCOCC3)cc12 [Compound 212]

EC50 [µM]	SMILES
0.2 to 1	O=C(Nc1c[nH]c2ncc(F)cc12)NC1CCC2(CCCCC2)CC1 [Compound 300]
0.2 to 1	O=C(Nc1ccc(C(F)(F)F)cc1)Nc1c[nH]c2c(F)cncc12 [Compound 165]
0.2 to 1	O=C(Nc1cccc(C(F)(F)F)c1)Nc1c[nH]c2ncc(F)cc12 [Compound 297]
1 to 5	O=C(Nc1ccc(C2CCCCC2)cn1)Nc1c[nH]c2cnccc12 [Compound 313]
0.04 to 0.2	C#Cc1ccc(NC(=O)Nc2c[nH]c3ncc(F)cc23)cc1 [Compound 291]
0.2 to 1	CC(C)n1cc(-c2cnc3[nH]cc(NC(=O)Nc4ccc(C(F)(F)F)cc4)c3c2)cn1 [Compound 193]
1 to 5	O=C(Nc1ccc(C2CCCCC2)nc1)Nc1c[nH]c2cccnc12 [Compound 331]
0.2 to 1	O=C(Nc1ccc(C(F)(F)F)cn1)Nc1c[nH]c2ncc(F)cc12 [Compound 138]
0.2 to 1	O=C(Nc1c[nH]c2ncc(F)cc12)NC1CCC(Cc2ccccc2)CC1 (centres unmarked) [Compound 248]
1 to 5	CCCCC1CCC(NC(=O)Nc2c[nH]c3cnccc23)CC1 (centres unmarked) [Compound 314]
1 to 5	Cc1nc2cc(NC(=O)Nc3c[nH]c4ncc(F)cc34)ccc2s1 [Compound 286]
1 to 5	O=C(Nc1cc(F)cc(F)c1)Nc1c[nH]c2ncc(F)cc12 [Compound 298]
1 to 5	O=C(Nc1cccc(C(F)(F)F)c1)Nc1c[nH]c2ccncc12 [Compound 148]
0.04 to 0.2	CCCCc1ccc(NC(=O)Nc2c[nH]c3ncc(F)cc23)cc1 [Compound 275]
1 to 5	O=C(Nc1ccc(C(F)(F)F)nc1)Nc1c[nH]c2ncc(F)cc12 [Compound 281]
0.2 to 1	O=C(Nc1c[nH]c2ncccc12)NC1CCC(c2ccccc2)CC1 (centres unmarked) [Compound 166]
0.2 to 1	CCCCc1ncc(NC(=O)Nc2c[nH]c3ncc(F)cc23)cc1F [Compound 255]
0.04 to 0.2	O=C(Nc1ccc(C(F)(F)F)cc1)Nc1c[nH]c2ncc(Cl)cc12 [Compound 283]

Source: patent US11618749B2, “Compounds and compositions for treating conditions associated with STING activity” (IFM Due, Inc., priority 2018, dated 2023)
